Laboratory results reported in BindingDB's records for patent US11746110 (Shenzhen Targetrx, 2023).

Biological target: Tyrosine-protein kinase ABL1 (Homo sapiens, UniProt P00519)
Test: Biochemical Kinase Assay
Procedure: Reagents and materials: ABL (ThermoFisher, Cat. No. PV3585), ABL T315I(Thermo Fisher, Cat. No. PR7429B), Ret (Carna, Cat. No. 08-159-10 ug), RETV804M, Active (Signalchem, Cat. No. R02-12GG), ATP (Sigma, Cat. No. A7699-1G), DMSO (Sigma, Cat. No. D2650), 96-well plate (Corning, Cat. No. 3365), 384-well plate (Greiner, Cat. No. 784076), buffer solution (Thermo Fisher, Cat. No. PR4876B). Specific Assay Method: Compound formulation: The test compounds were dissolved in DMSO to prepare a 20 mM stock solution. Before use, the compounds were diluted in DMSO to 0.1 mM, and diluted into 11 concentrations with a 3-fold gradient. When addition, dilutions of 4-fold final concentration were then made with buffer solution. Kinase assay method: After preparing the buffer, the enzyme was mixed with pre-formulated and diluted compounds of different concentrations in duplicate for each concentration, and placed at room temperature for 30 minutes. The corresponding substrate and ATP were added thereto,and reacted at room temperature for 60 minutes (both a negative and a positive control were set). After the reaction, antibody was added for detection, Envision detection was carried out after 60 minutes incubation at room temperature, and data was collected. Data analysis and fitting were made according to XLfit5 software.

Sequence of Tyrosine-protein kinase ABL1 (P00519 whole entry): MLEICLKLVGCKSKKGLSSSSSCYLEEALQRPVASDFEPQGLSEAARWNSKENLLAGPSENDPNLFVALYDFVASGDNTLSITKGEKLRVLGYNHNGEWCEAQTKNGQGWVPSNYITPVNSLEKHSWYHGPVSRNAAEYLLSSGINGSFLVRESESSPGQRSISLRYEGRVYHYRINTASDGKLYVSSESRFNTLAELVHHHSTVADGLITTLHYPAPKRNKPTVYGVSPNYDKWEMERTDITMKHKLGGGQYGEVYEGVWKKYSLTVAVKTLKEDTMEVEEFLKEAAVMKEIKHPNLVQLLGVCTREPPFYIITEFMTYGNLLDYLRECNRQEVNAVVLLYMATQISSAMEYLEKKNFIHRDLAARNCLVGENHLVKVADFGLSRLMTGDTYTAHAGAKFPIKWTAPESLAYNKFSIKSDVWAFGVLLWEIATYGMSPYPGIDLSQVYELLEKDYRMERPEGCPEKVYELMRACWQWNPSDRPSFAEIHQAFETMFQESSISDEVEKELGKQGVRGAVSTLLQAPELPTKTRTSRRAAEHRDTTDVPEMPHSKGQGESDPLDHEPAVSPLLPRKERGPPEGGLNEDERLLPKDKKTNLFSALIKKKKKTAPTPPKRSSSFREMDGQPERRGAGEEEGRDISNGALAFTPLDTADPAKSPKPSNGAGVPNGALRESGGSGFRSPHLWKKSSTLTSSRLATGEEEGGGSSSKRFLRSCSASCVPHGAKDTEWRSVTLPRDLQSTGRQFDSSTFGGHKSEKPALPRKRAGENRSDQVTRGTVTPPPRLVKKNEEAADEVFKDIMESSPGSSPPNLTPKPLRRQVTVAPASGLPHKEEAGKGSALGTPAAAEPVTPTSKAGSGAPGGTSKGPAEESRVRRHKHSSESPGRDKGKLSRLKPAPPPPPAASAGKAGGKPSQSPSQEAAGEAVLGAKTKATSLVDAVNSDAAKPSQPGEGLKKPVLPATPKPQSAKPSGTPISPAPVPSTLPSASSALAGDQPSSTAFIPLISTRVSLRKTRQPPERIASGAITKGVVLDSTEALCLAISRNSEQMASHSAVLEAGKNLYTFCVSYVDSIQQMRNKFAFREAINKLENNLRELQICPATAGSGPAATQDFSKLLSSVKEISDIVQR

IC50	Compound
32.1 nM	Cc1ccc(NC(=O)Nc2ccc(Cl)c(C(F)(F)F)c2)cc1C#Cc1cnc2c(Nc3cnn(C)c3)nccn12 [US11746110, Example 7]
82.9 nM	Cc1ccc(NC(=O)Nc2ccc(Cl)c(C(F)(F)F)c2)cc1C#Cc1cnc2c(Nc3cnn(C)c3)ccnn12 [US11746110, Example 16]
